{
  "source": "patent US7538226B2",
  "about": "“(1S,5S)-3-(5,6-dichloro-3-pyridinyl)-3,6-diazabicyclo[3.2.0]heptane” (Abbott Laboratories, priority 2003, dated 2009)",
  "key": {"[1]": {"experiment": "Solubility in water", "format": "physicochemical"}, "[2]": {"test_system": "scopolamine-induced cognitive deficit", "experiment": "Morris water maze, spatial discrimination version, scopolamine-induced cognitive deficit", "format": "in vivo, rat", "settings": "about 0.001 to about 5 μmol/kg, 30 minutes prior to the test; scopolamine HBr 0.3 mg/kg i.p.", "method": "Male, Long-Evans rats, 300-400 g, obtained from Charles River laboratories were used in this study. During two daily habituation sessions, rats are trained to find a visible escape platform in a pool (180 cm diameter and 60 cm high) filled to a depth of 37 cm with water made opaque with powdered milk. Water temperature is maintained at 26° C. On the second day of habituation training, latency to escape measures are obtained in order to assure that animals are assigned to groups without swim speed bias. For spatial discrimination training, two visible platforms, covered in aluminum foil, are present. The platforms remain in the same position (diagonal to each other) through 5 days of training. Only one of the platforms provides escape; the other, made of expanded polystyrene, will not support the animals' weight. Rats receive six trials/day, with start position changed from trial to trial. The number of contacts with the incorrect platform (errors) serves as the dependent variable.\nA cognitive deficit, as measured by increased number of errors in the water maze test, is induced by i.p. administration of the muscarinic antagonist scopolamine·HBr (0.3 mg/kg), dosed 15 min prior to each daily discrimination training session (over five days total)."}},
  "data": [
    {"molecule": "Clc1cc(N2C[C@@H]3CN[C@@H]3C2)cnc1Cl.O=C(O)/C=C/C(=O)O", "note": "[Example 10, (1S,5S)-3-(5,6-Dichloro-pyridin-3-yl)-3,6-diaza-bicyclo[3.2.0]heptane fumarate]", "values": [
      {"measurement": "solubility", "setting": "[1]", "result": 2900, "unit": "µg/mL"}
    ]},
    {"molecule": "Clc1cc(N2C[C@@H]3CN[C@@H]3C2)cnc1Cl.O=C(O)/C=C\\C(=O)O", "note": "[Example 9, (1S,5S)-3-(5,6-Dichloro-pyridin-3-yl)-3,6-diaza-bicyclo[3.2.0]heptane maleate]", "values": [
      {"measurement": "solubility", "setting": "[1]", "result": 7500, "unit": "µg/mL"}
    ]},
    {"molecule": "CS(=O)(=O)O.Clc1cc(N2C[C@@H]3CN[C@@H]3C2)cnc1Cl", "note": "[Example 8, (1S,5S)-3-(5,6-Dichloro-pyridin-3-yl)-3,6-diaza-bicyclo[3.2.0]heptane methanesulfonate]", "values": [
      {"measurement": "solubility", "setting": "[1]", "result": "> 50000", "unit": "µg/mL"}
    ]},
    {"molecule": "CC(=O)O.Clc1cc(N2C[C@@H]3CN[C@@H]3C2)cnc1Cl", "note": "[Example 6, (1S,5S)-3-(5,6-Dichloro-pyridin-3-yl)-3,6-diaza-bicyclo[3.2.0]heptane acetate]", "values": [
      {"measurement": "solubility", "setting": "[1]", "result": 13400, "unit": "µg/mL"}
    ]},
    {"molecule": "Clc1cc(N2C[C@@H]3CN[C@@H]3C2)cnc1Cl", "note": "[(1S,5S)-3-(5,6-Dichloropyridin-3-yl)-3,6-diaza-bicyclo[3.2.0]heptane]", "values": [
      {"measurement": "effect on scopolamine-induced cognitive deficit in the water maze", "setting": "[2]", "result": "reversed the cognitive deficit and normalized the performance of the animals in the water maze"}
    ]}
  ]
}
